Data from article PMC7288058, “Modulating the Properties of Fe(III) Macrocyclic MRI Contrast Agents by Appending Sulfonate or Hydroxyl Groups” (Molecules, 2020).
Where “and” joins values, the source holds several entries; their conditions need not be identical. Equal entries are not always repeated.

Columns and labels:
[1] = pH-potentiometric titrations of the intact Fe(III) complexes; format: physicochemical; conditions: potentiometric titration, 25 °C, 0.10 M NaCl, 1–2 mM meglumine
Description: The pH-potentiometric titrations of the intact Fe(III) complexes were studied to determine the equilibrium constants for deprotonation of ligand groups such as the hydroxyl pendants or water ligand. […] For Fe(L1)(OH2) and Fe(L3)(OH2), either an alcohol pendant group or water ligand might ionize but, for Fe(L2), we only consider alcohol pendant groups. […] Ionization of the water ligand at near neutral pH cannot be ruled out, but is not considered to be likely based on prior studies [19]. […] The group that produces this ionization is not likely to be a bound water or hydroxyl group given that the coordination sphere is very similar to that of Fe(L3)(OH2). […] A weak hydrogen bonding interaction to a hydroxyl pendent or bound water might produce such an environment.
All solutions were prepared by using carbonate-free water.
Fe(L1)(OH2): The solution contained 0.527 mM Fe(III) complex added as the chloride salt, 1.00 mM meglumine, 0.100 M NaCl, and 3.72 mM HCl to decrease the pH of the solution to pH 3 in total volume of 20.00 mL. The solution was titrated with a 98.83 mM NaOH solution. Then, 5.00 µL aliquots of the NaOH solution were added over 60 s with an interval of 300 s using a Nexus 3000 High Flow Syringe Pump from Chemyx Inc (Stafford, TX, USA) equipped with a 10-mL Hamilton gastight syringe.
Fe(L2): The solution contained 0.75 mM Fe(III) complex added as the chloride salt, 2.00 mM meglumine, 0.100 M NaCl, and 6.00 mM HCl to decrease the pH of the solution to pH 3 in total volume of 25.00 mL. The solution was titrated with a 94.86 mM NaOH solution. Then, 5.00 µL aliquots of the NaOH solution were added over 60 s with an interval of 300 s using a Nexus 3000 High Flow Syringe Pump from Chemyx Inc (Stafford, TX) equipped with a 10-mL Hamilton gastight syringe.
In all fits of the data, meglumime was used as a third reagent, and the equilibrium equation corresponding to its ionization was added to the model data fit as determined from separate titrations. The titration was completed under Ar(g) at 25 °C. The titrations were monitored from pH 3 to pH 11. Equilibrium constants for all complexes were determined by fitting the data using [sequence] 2013 Version 6.0.1. Speciation diagrams were plotted by utilizing HySS Version 4.0.31.

[2] = 1-octanol/water partition coefficient (log P) by ICP-MS; format: physicochemical; conditions: 20 mM HEPES pH 7.4, 100 mM NaCl
Description: To compare the lipophilicity of the complexes, the 1-octanol/water partition coefficients (log P) were determined.
Fe(III) complex solutions (0.500 mM) were prepared in 1.00 mL of H2O with 20.0 mM HEPES buffer (pH 7.4) and 100.0 mM NaCl. 0.500 mL of Fe(III) complex solution and 0.500 mL of 1-octanol was prepared. The mixture was shaken for 24 h, then centrifuged at 13,000 rpm for 1 min. Then, the solution was allowed to stand for 1 h. Iron concentration in the aqueous layer before and after mixing with 1-octanol was determined by ICP-MS. […] (3) logP=log(Co/Cw).

[3] = T1/T2 relaxivity measurements (4.7 T MRI scanner, 9.4 T NMR); conditions: pH 7.4, 37 °C; for r1 4.7 T / r2 4.7 T / r1 9.4 T: buffer
Description: The r1 and r2 relaxivity of the three complexes in buffer and HSA on a 4.7-T MRI scanner and 9.4-T NMR spectrometer are shown in Table 2. In buffer, the r1 relaxivity values of Fe(L1)(OH2) and Fe(L3)(OH2) are similar at 2.0 mM^−1∙s^−1 and 2.2. mM^−1∙s^−1, respectively, at 4.7 T. Both complexes have higher relaxivity than Fe(EDTA) (1.4 mM^−1∙s^−1 at 4.7 T) which has a single exchangeable inner-sphere water molecule. The r1 relaxivity value of the […] complex in buffer is two-fold less (1.0 mM^−1∙s^−1) than that of Fe(L1)(OH2) or […] at 4.7 T. In HSA-containing solutions, the r1 relaxivity values of Fe(L1)(OH2), Fe(L2) and Fe(L3)(OH2) change slightly, consistent with weak binding to this blood protein. […] As expected, increasing the field strength from 4.7 T to 9.4 T caused a decrease in the r1 relaxivity value of Gd(DTPA) to 2.5 mM^−1∙s^−1 from 3.1 mM^−1∙s^−1 [19]. […] This peculiar feature of Fe(III) complexes was predicted from simulation of NMRD profiles.
Relaxivity of the complexes was determined at 4.7 T (small animal MRI) and 9.4 T (400 MHz NMR). Both T1 and T2 experiments were performed at 37 °C for the concentration range of 50.0 µM to 0.400 mM Fe(III) complex. The solutions contained 0.100 M NaCl and HEPES buffer (pH 7.4, 20 mM). An inversion recovery True FISP acquisition was used to measure T1 relaxation rate constants. T2 relaxation rates were measured by using multi-echo, Carr–Purcell–Meiboom–Gill spin-echo sequence with a fixed TR of 3000 ms and TE times ranging from 20–1200 ms. The T1 and T2 relaxivity values were calculated by using linear regression fitting of 1/T1 (s^−1) and 1/T2 (s^−1) versus concentration (mM) in Microsoft Excel.

| SMILES | Log K1 (pKa2) [1] | Log K2 (pKa1) [1] | Log P [2] | r1 4.7 T [3] | r2 4.7 T [3] [mM⁻¹ s⁻¹] | r1 9.4 T [3] [mM⁻¹ s⁻¹] | r1 in HSA 4.7 T [3] [mM⁻¹ s⁻¹] | r2 in HSA 4.7 T [3] [mM⁻¹ s⁻¹] |
| --- | --- | --- | --- | --- | --- | --- | --- | --- |
| C[C@H]([O-])CN1CCN(C[C@H](C)O)CCN(C[C@H](C)O)CC1.[Fe+3] [Fe(L2)] | 11.78 ± 0.11 | 6.57 ± 0.05 | −1.60 ± 0.1 | 0.97 ± 0.12 mM⁻¹ s⁻¹ | 1.8 ± 0.47 | 1.4 ± 0.08 | 1.2 ± 0.22 | 2.3 ± 1.1 |
| C[C@H]([O-])CN1CCN(CCCS(=O)(=O)[O-])CCN(C[C@H](C)O)CC1.O.[Fe+3] [Fe(L1)(OH2)] | 7.55 ± 0.08 | 3.39 ± 0.17 | −1.67 | 2.0 mM⁻¹ s⁻¹ and 2.0 ± 0.19 mM⁻¹ s⁻¹ | 6.1 ± 0.77 | 2.0 ± 0.2 | 2.5 ± 0.63 | 5.5 ± 0.98 |
